Measurements as given in US20230095907A1, “STIMULATION OF NEURONAL PLASTICITY” (Institute of Science and Technology Austria, priority 2019, published 2023).

Experiments:
[1] = biological target: purinergic receptor P2Y12 (Mus musculus, UniProt Q9CPV9); settings: 3×, S1
Procedure: Clopidogrel: Clopidogrel (Tocris 2490) was dissolved in dimethyl sulfoxide (DMSO, Sigma, D8418) and diluted 1:4 in phosphate buffer saline (PBS) before the injection.
Perineuronal net density per mm^3. In each image, neurons surrounded by perineuronal nets were counted using the spot detection function of Imaris (Oxford Instruments). The total cell count was normalised to the entire image volume and data are represented as number of cells surrounded by perineuronal nets per mm^3.
Perineuronal net density per mm^3: Each data point represents the count of neurons surrounded by PNN in one image per animal (biological replicates). For all following analyses, cell densities were calculated as a percentage with the respective control set to 100%. Linear regression was used to predict cell density per mm^3 (as absolute values or as percentages compared to the respective control) by experimental condition in cases where more than two levels were involved. Then, a two-sided T-test was then used to investigate differences between experimental conditions in cases where only two levels were involved. P-values were adjusted with the “p.adjust” function and the method set to “BH”.

[2] = test system: parvalbumin-positive neurons, microglia, astrocytes; experiment: Cell density, apoptosis and astrogliosis in S1 (parvalbumin, Iba1, Caspase3, GFAP immunostaining)
Procedure: For histological analysis, animals were shortly anesthetized with isoflurane (Zoetis) and secured to the perfusion plate. The chest was open to expose the hearth. […] The animals were initially perfused with 20 mL of phosphate-buffered saline (PBS) with heparin (100 mg/L, Sigma H0878), followed by 20 mL of 4% (w/v) paraformaldehyde (PFA, Sigma P6148) in PBS using a peristaltic pump (Behr PLP 380, speed: 25 rpm). The animals were decapitated, the retina and brain explanted, and post-fixed in 4% (w/v) PFA/PBS for 30 minutes and overnight (16h), respectively. Then, the tissues were washed in PBS and stored at 4° C. with 0.025% (w/v) sodium azide (VWR 786-299). For cryoprotection, the tissue was transferred in 30% (w/v) sucrose (Sigma 84097) in PBS and incubated overnight at 4° C. To increase antibody permeability, the brain slices were frozen over dry-ice and thawed at room temperature for three cycles.
P-values were adjusted with the “p.adjust” function and the method set to “BH”.

[3] = ketamine; cited from earlier work
[4] = test system: gamma oscillations in the brain; experiment: Power spectrum analysis of brain oscillations after repeated ketamine exposure; format: in vivo
perineuronal net (PNN) [5] = experiment: PNN-covered cells (WFA staining) in primary visual cortex (V1); format: in vivo, C57BL/6J mice; settings: female compared with male
Procedure: (§1) C57BL/6J mice were intraperitoneal (i.p.) injected in the morning. Deep anaesthesia was confirmed based on the following parameters: • 1. Absence of the toe pinch reflex around 10 minutes after induction. • 2. Decrease in the respiratory frequency. • 3. No responses to external stimuli. • 4. Flaccid paralysis. • 5. Absence of whiskers movement.
(§2) Solution was always freshly prepared to avoid pH fluctuations.
(§3) For histological analysis, animals were shortly anesthetized with isoflurane (Zoetis) and secured to the perfusion plate. The chest was open to expose the hearth. […] The animals were initially perfused with 20 mL of phosphate-buffered saline (PBS) with heparin (100 mg/L, Sigma H0878), followed by 20 mL of 4% (w/v) paraformaldehyde (PFA, Sigma P6148) in PBS using a peristaltic pump (Behr PLP 380, speed: 25 rpm). The animals were decapitated, the retina and brain explanted, and post-fixed in 4% (w/v) PFA/PBS for 30 minutes and overnight (16h), respectively. […]
(§4) Perineuronal net density per mm^3. In each image, neurons surrounded by perineuronal nets were counted using the spot detection function of Imaris (Oxford Instruments). […]
(§5) Perineuronal net density per mm^3: Each data point represents the count of neurons surrounded by PNN in one image per animal (biological replicates). For all following analyses, cell densities were calculated as a percentage with the respective control set to 100%. […]

perineuronal net (PNN) [6] = experiment: PNN-covered cells (WFA staining) in primary somatosensory cortex after repeated KXA-anaesthesia; format: in vivo, C57BL/6J mice; settings: female compared with male
Procedure: as §1, §2, §3, §4, §5

Chain of purinergic receptor P2Y12 (Q9CPV9 whole entry): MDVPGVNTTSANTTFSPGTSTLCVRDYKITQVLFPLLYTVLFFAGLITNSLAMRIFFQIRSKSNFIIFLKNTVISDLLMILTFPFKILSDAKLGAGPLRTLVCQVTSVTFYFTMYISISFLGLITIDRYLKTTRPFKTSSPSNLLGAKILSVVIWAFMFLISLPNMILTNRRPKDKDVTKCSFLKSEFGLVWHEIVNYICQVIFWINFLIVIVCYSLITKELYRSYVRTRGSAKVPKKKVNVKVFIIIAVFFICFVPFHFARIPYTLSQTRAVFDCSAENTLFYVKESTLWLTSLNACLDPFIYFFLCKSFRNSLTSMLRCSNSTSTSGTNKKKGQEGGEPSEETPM

| Structure (SMILES) | loss of PNN-covered cells ([1]; 50 mg/Kg clopidogrel i.p. 5 minutes before KXA) | microglia interaction with the PNN structure ([1]; clopidogrel i.p. 5 minutes before KXA) | apoptosis ([2]; repeated ketamine exposure) | parvalbumin-positive neuron density ([2]; repeated ketamine exposure) | astrogliosis (GFAP) ([2]; repeated ketamine exposure (6×KXA)) | half-life [3] | 60 Hz frequency gamma oscillations in the brain [4] | sex difference in PNN recovery rate (perineuronal net (PNN) [5]) | sex difference in the action (PNN loss) of repeated exposure (perineuronal net (PNN) [6]) |
| --- | --- | --- | --- | --- | --- | --- | --- | --- | --- |
| COC(=O)[C@H](c1ccccc1Cl)N1CCc2sccc2C1 [clopidogrel] | prevented ketamine-mediated loss of PNN-covered cells | microglia showed less interaction with the PNN structure | – | – | – | – | – | – | – |
| CNC1(c2ccccc2Cl)CCCCC1=O (stereo not drawn) [ketamine, 2-(2-chlorophenyl)-2-(methylamino)cyclohexan-1-one] | – | – | does not induce apoptosis | does not induce apoptosis or alteration in parvalbumin-positive neuron density | nor induce astrogliosis | 2 h | increase in 60 Hz frequency gamma oscillations | recovery rate was similar | accelerated in females |
